Reference: patent US20050244472A1, “Intraocular drug delivery systems containing excipients with reduced toxicity and related methods” (Allergan, Inc., priority 2004, published 2005)
“And” between values parts separate entries of the source, which are not always exact repeats. Identical values can stand only once. Like-named read-outs stand apart in the source and are kept apart here.

Assays:
[1] = Osmolarity of excipient-containing incubating solutions; format: physicochemical
Description: Osmolarity was measured using osmometer type 13/13DR from Roebling (Berlin, GR).
(§1) For each concentration of tested compound, pH and osmolarity parameters were measured.

[2] = pH of excipient-containing incubating solutions; format: physicochemical
Description: as §1

ARPE-19 cells [3] = test: MTT cell viability assay (mitochondrial dehydrogenase activity) after exposure to excipient
Excerpt: Cell viability and cell morphology were examined to evaluate the toxicity of excipients on retinal pigment epithelial cells. The human retina cell line used in these experiments is the ARPE-19 cell line (human adult-derived retinal pigmented epithelial cells). […] They form tight-junctions with transepithelial resistance of monolayers (Dunn K C et al., supra). From a molecular standpoint, it appears that ARPE-19 express a huge pattern of genes similar to those expressed by human RPE from fresh explant which could account for their physiological function (Klimanskaya I. et al., “Derivation and comparative assessment of retinal pigment epithelium from human embryonic stem cells using transcriptomics”, Cloning and Stem Cells, 2004, 6(3):217-45).
ARPE-19 cells are widely used as a retinal model that resemble physiological properties of RPE cells. Similar methods of culturing ARPE-19 cells and cytotoxicity assays can be found in Yeung et al., “Cytotoxicity of triamcinolone on cultured human retinal pigment epithelial cells: comparison with dexamethasone and hydrocortisone”, Jpn J. Ophthalmol, 2004; 48:236-242. Cell viability and cell morphology were examined using conventional colormetric and visual methods. Viability and morphology measurements were obtained at 24 hours, 48 hours, and 72 hours after exposure to an excipient composition.
To assess cell viability, mitochondrial metabolism was quantified through conventional colorometric assays (i.e., the MTT assay). This colorimetric assay utilizes 3-(4,5-dimethylthiazol-2-yl)-2,5-diphenyltetrazolium bromide (MTT) and correlates mitochondrial metabolism and cell viability through measurement of dehydrogenase activity which converts a substrate into crystal. More specifically, the assay measures the activity of living cells through mitochondrial dehydrogenases. When dissolved in culture cell medium, MTT solution appears dark orange. Mitochondrial dehydrogenases of viable cells degrade MTT by cleaving the tetrazolium ring yielding to formation of a purple formazan crystal, which is insoluble in water. Crystals are subsequently dissolved in isopropanol solution. A resulting purple solution is spectrophotometrically measured. Cell viability is relative to amount of formazan and calculated as a percentage of remaining treated compared to non-treated cells.
Results from the MTT assay were expressed as a percentage of cell viability calculated using the following equation: % cell viability=ODtest/ODcontrol×100.
For each experiment, one concentration was performed in triplicate. Each point was spectrophotometrically read twice. Average of readings was calculated, then average from these 3 values was determined.
After 3 experiments were independently completed under the same conditions, a graph was plotted with cell viability expressed as a function of concentration (dose response) and for various incubation period (time course). The IC50 was then estimated based on the graphed data.
More specifically, cell density in 24-multiwell plates was observed on the day of the experiment to check if confluence of the cells was reached. Aliquots of MTT concentrated solutions were removed from a freezer at −20° C. and thawed at room temperature. Cell medium was warmed at 37° C. before use. Appropriated tubes for diluting compounds were prepared. Higher concentrations of each excipient agent was prepared. Serial dilution was then performed in cell medium (DMEM:F12+10% FBS).
Cell culture medium in the 24-well plate was removed using vacuum-pump. Cells were then stimulated with 0.5 ml final volume for each concentration of one given excipient agent. Distribution of the excipient-containing solution was performed using automated pipet-aid in sterile environment (under PSM) or not depending on time of compounds and duration of incubation.
After stimulation, cells were replaced in a CO2 incubator for the required time of exposure.

ARPE-19 cells [4] = format: cell-based; set-up: key to Cell Morphology score, Mean: 5 = basal (wild type) to 1 = lethal phenotype
Description: Cell morphology was visualized using light microscopy. Cell morphology observation using light microscopy permits determination of (i) cell number and density and (ii) whether or not cells in contact with an excipient agent display modified phenotype compared to a non-treated population of cells.
Cell morphology was analyzed in parallel by semi-quantitative scoring ranging from 5 to 1, from basal to lethal phenotype respectively, as shown in FIG. 23.
More specifically, cells were removed from an incubator for examination. Morphological shape of cells was visualized using a light microscope and CCD camera. Every 3 wells of a given concentration was observed through image analysis software. Then, a representative photograph describing the average appearance of cells was saved. The supernatant was either, kept for further predefined experiments to perform, or removed using vacuum-pump.
Resulting semi-quantitative scoring is represented as a function of time course and dose response. Score 5: wild type phenotype of non-treated cells, 100% confluent adherent cells. This phenotype very much vary following post-seeding time. For example, at confluence ARPE-19 cells at 1 day appear well defined with visible outer membrane and dark grey cytoplasm. After 3 days of confluence, limits between cells become less visible and cells adopt a more hexagonal shape and constitute an epithelium-like uniform dense structure. Score 4: density<100%. Cell shape has changed, some spaces are present between cells, few cells possibly detached. Score 3: […]. Spaces are sometimes present among cells, areas appears confluent while in others, cells detached. General cell shape starts showing non negligible alterations. Score 2: Cell density<50%. Cells adopt exclusively stressed appearance, presence of mass dead floating cells. Score 1: Cell density<10%. Presence of almost exclusively dead cells.
Based on quotation, each condition of the applied compound was given a score which allow to a morphology evolution profile to be prepared, ie. cell morphology as a function of compound concentration and time of exposure. […]

[5] = 0.1% excipient dilution in culture medium
[6] = 0.5% excipient dilution in culture medium
[7] = 1% excipient dilution in culture medium
[8] = 5% excipient dilution in culture medium
[9] = 10% excipient dilution in culture medium
[10] = 20% excipient dilution in culture medium
[11] = 0.01% excipient dilution in culture medium
[12] = 0.02% excipient dilution in culture medium
[13] = 0.04% excipient dilution in culture medium
[14] = 0.06% excipient dilution in culture medium
[15] = 0.08% excipient dilution in culture medium

In the case of “hydroxypropyl beta-cyclodextrin [Kleptose]”, the mOsm [1, 5] is reported as 309 mOsm, the mOsm [1, 6] is reported as 317 mOsm and the mOsm [1, 7] is reported as 325 mOsm. For the same substance, the mOsm [1, 8] was 375 mOsm, the mOsm [1, 9] was 459 mOsm and the mOsm [1, 10] was 635 mOsm. The pH [2, 5] was 7.6, the pH [2, 6] was 7.6 and the pH [2, 7] was 7.5. For the same substance, the pH [2, 8] was 7.5, the pH [2, 9] was 7.5 and the pH [2, 10] was 7.6. For the same substance, the cell survival (ARPE-19 cells [3]; 5% (w/v), 24 hour time point) was “about 20%”.

For “hydroxypropyl gamma-cyclodextrin [Cavasol]”, the “effect on both cell parameters (viability and morphology)” value (ARPE-19 cells [3]) was “no measurable effect”, the “percentage of living cells” value (ARPE-19 cells [3]; 0.05 to 10%, recovery after 24 h) was over 80% and the “reduction of cell survival” value (ARPE-19 cells [3]; 0.1% (w/v), 24 hour, 48 hour and 72 hour time points) was at most 10%. For the same substance, the “IC50 (50% cell viability inhibition)” value (ARPE-19 cells [3]; deduced from viability graphs, incubation 24-72 h) was “not possible to determine the IC50”.

For hydroxypropylmethyl cellulose [HPMC], the “diminution of cell viability” value (ARPE-19 cells [3]) was 20-40% and the “percentage of cell viability” value (ARPE-19 cells [3]) was 60-80%.

In the case of poloxamer 407nf, the “increase in cell viability up to” value (ARPE-19 cells [3]) is reported as “up to 200%”.

With polysorbate 80 the mOsm [1, 11] was 310 mOsm, the mOsm [1, 12] was 307 mOsm and the mOsm [1, 13] was 313 mOsm. For the same substance, the mOsm [1, 14] was 346 mOsm, the mOsm [1, 15] was 390 mOsm and the mOsm [1, 5] was 523 mOsm. It also gave a pH [2, 11] of 7.5, a pH [2, 12] of 7.6 and a pH [2, 13] of 7.5. The pH [2, 14] was 7.5, the pH [2, 15] was 7.5 and the pH [2, 5] was 7.6. The “overall cytotoxicity to ARPE-19 cells (conclusion in words)” value (ARPE-19 cells [3]) was “barely tolerated”, the cell survival (ARPE-19 cells [3]; 0.1% (w/v)) was “substantially zero” and the “Cell Morphology score” value (ARPE-19 cells [4]; 0.01% Tween80, 24 Hours) was 4 (Score 4: density<100%). For the same substance, the “Cell Morphology score, Mean” value (ARPE-19 cells [4]; 0.01% Tween80, 24 Hours) was 4.0, the “Cell Morphology score” value (ARPE-19 cells [4]; 0.01% Tween80, 48 Hours) was 4 (Score 4: density<100%) and the “Cell Morphology score, Mean” value (ARPE-19 cells [4]; 0.01% Tween80, 48 Hours) was 4.0. The “Cell Morphology score” value (ARPE-19 cells [4]; 0.01% Tween80, 72 Hours) was 4 (Score 4: density<100%), the “Cell Morphology score, Mean” value (ARPE-19 cells [4]; 0.01% Tween80, 72 Hours) was 4.0 and the “Cell Morphology score” value (ARPE-19 cells [4]; 0.02% Tween80, 24 Hours) was 3 (Score 3: 80%<Cell density<40%) and 4 (Score 4: density<100%). The “Cell Morphology score, Mean” value (ARPE-19 cells [4]; 0.02% Tween80, 24 Hours) was 3.3, the “Cell Morphology score” value (ARPE-19 cells [4]; 0.02% Tween80, 48 Hours) was 3 (Score 3: 80%<Cell density<40%) and 4 (Score 4: density<100%) and the “Cell Morphology score, Mean” value (ARPE-19 cells [4]; 0.02% Tween80, 48 Hours) was 3.3. The “Cell Morphology score” value (ARPE-19 cells [4]; 0.02% Tween80, 72 Hours) was 3 (Score 3: 80%<Cell density<40%) and 4 (Score 4: density<100%), the “Cell Morphology score, Mean” value (ARPE-19 cells [4]; 0.02% Tween80, 72 Hours) was 3.7 and the “Cell Morphology score” value (ARPE-19 cells [4]; 0.04% Tween80, 24 Hours) was 3 (Score 3: 80%<Cell density<40%) and 4 (Score 4: density<100%). The “Cell Morphology score, Mean” value (ARPE-19 cells [4]; 0.04% Tween80, 24 Hours) was 3.3, the “Cell Morphology score” value (ARPE-19 cells [4]; 0.04% Tween80, 48 Hours) was 3 (Score 3: 80%<Cell density<40%) and the “Cell Morphology score, Mean” value (ARPE-19 cells [4]; 0.04% Tween80, 48 Hours) was 3.0. The “Cell Morphology score” value (ARPE-19 cells [4]; 0.04% Tween80, 72 Hours) was 3 (Score 3: 80%<Cell density<40%), the “Cell Morphology score, Mean” value (ARPE-19 cells [4]; 0.04% Tween80, 72 Hours) was 3.0 and the “Cell Morphology score” value (ARPE-19 cells [4]; 0.06% Tween80, 24 Hours) was 3 (Score 3: 80%<Cell density<40%). For the same substance, the “Cell Morphology score, Mean” value (ARPE-19 cells [4]; 0.06% Tween80, 24 Hours) was 3.0, the “Cell Morphology score” value (ARPE-19 cells [4]; 0.06% Tween80, 48 Hours) was 3 (Score 3: 80%<Cell density<40%) and the “Cell Morphology score, Mean” value (ARPE-19 cells [4]; 0.06% Tween80, 48 Hours) was 3.0. The “Cell Morphology score” value (ARPE-19 cells [4]; 0.06% Tween80, 72 Hours) was 3 (Score 3: 80%<Cell density<40%), the “Cell Morphology score, Mean” value (ARPE-19 cells [4]; 0.06% Tween80, 72 Hours) was 3.0 and the “Cell Morphology score” value (ARPE-19 cells [4]; 0.08% Tween80, 24 Hours) was 2 (Score 2: Cell density<50%) and 3 (Score 3: 80%<Cell density<40%). For the same substance, the “Cell Morphology score, Mean” value (ARPE-19 cells [4]; 0.08% Tween80, 24 Hours) was 2.3, the “Cell Morphology score” value (ARPE-19 cells [4]; 0.08% Tween80, 48 Hours) was 2 (Score 2: Cell density<50%) and 1 (Score 1: Cell density<10%) and the “Cell Morphology score, Mean” value (ARPE-19 cells [4]; 0.08% Tween80, 48 Hours) was 1.7. For the same substance, the “Cell Morphology score” value (ARPE-19 cells [4]; 0.08% Tween80, 72 Hours) was 1 (Score 1: Cell density<10%), the “Cell Morphology score, Mean” value (ARPE-19 cells [4]; 0.08% Tween80, 72 Hours) was 1.0 and the “cells floating in a typical round dead shape” value (ARPE-19 cells [4]; 0.1%) was “over 95%”. The “Cell Morphology score” value (ARPE-19 cells [4]; 0.1% Tween80, 24 Hours) was 1 (Score 1: Cell density<10%), the “Cell Morphology score, Mean” value (ARPE-19 cells [4]; 0.1% Tween80, 24 Hours) was 1.0 and the “Cell Morphology score” value (ARPE-19 cells [4]; 0.1% Tween80, 48 Hours) was 1 (Score 1: Cell density<10%). For the same substance, the “Cell Morphology score, Mean” value (ARPE-19 cells [4]; 0.1% Tween80, 48 Hours) was 1.0, the “Cell Morphology score” value (ARPE-19 cells [4]; 0.1% Tween80, 72 Hours) was 1 (Score 1: Cell density<10%) and the “Cell Morphology score, Mean” value (ARPE-19 cells [4]; 0.1% Tween80, 72 Hours) was 1.0. For the same substance, the “Morphology limit concentration (%)” value (ARPE-19 cells [4]; ARPE-19 cells, Table 3 summary) was 0.06% and the “critical limit for lethality (injured cell aspect)” value (ARPE-19 cells [4]; morphology) was 0.06%.

For sodium carboxymethylcellulose [CMC], the “percentage of cell viability” value (ARPE-19 cells [3]) was 80-100%.

Substance “sulfobutyl ether 4 beta-cyclodextrin [Captisol]” has a mOsm [1, 5] of 310 mOsm, a mOsm [1, 6] of 318 mOsm and a mOsm [1, 7] of 333 mOsm. The mOsm [1, 8] was 408 mOsm, the mOsm [1, 9] was 518 mOsm and the mOsm [1, 10] was 710 mOsm. The pH [2, 5] was 7.6, the pH [2, 6] was 7.6 and the pH [2, 7] was 7.6. It also gave a pH [2, 8] of 7.6, a pH [2, 9] of 7.7 and a pH [2, 10] of 7.7. For the same substance, the “Cell Viability, Mean (%)” value (ARPE-19 cells [3]) was 40% and the “overall cytotoxicity to ARPE-19 cells (conclusion in words)” value (ARPE-19 cells [3]) was “mild cytotoxicity”.
